We go through 9 molecules from patent US7253189B2, “Cannabinoid receptor ligands” (Schering Corporation, priority 2002, dated 2007).

Structures are written as SMILES. Read-outs that look alike come from different tables or passages of the source.

In the experiment the target is T1, recombinant human cannabinoid CB2 receptor (Homo sapiens, UniProt P34972).
T1 construct: purchased Receptor Biology RB-HCB2
Put plainly: competition with [3H] CP-55,940 for binding to recombinant cannabinoid CB2 receptor membranes. The procedure:
Potential cannabinoid receptor ligands were screened for the ability to compete with [^3H] CP-55,940 for binding to recombinant cannabinoid receptors. Test compounds were serially diluted in Diluent Buffer (50 mM Tris pH 7.1, 1 mM EDTA, 3 mM MgCl2, 0.1% BSA, 10% DMSO, 0.36% methyl cellulose (Sigma M-6385)) from stocks prepared in 100% DMSO. Aliquots (10 μl) were transferred into 96-well microtiter plates. Membrane preparations of recombinant human cannabinoid CB2 receptor (Receptor Biology #RB-HCB2) or recombinant human cannabinoid CB1 receptor (Receptor Biology #RB-HCB1) were diluted to 0.3 mg/ml in Binding Buffer (50 mM Tris pH 7.2, 1 mM EDTA, 3 mM MgCl2, 0.1% BSA). Aliquots (50 μl) were added to each well of the microtiter plate. The binding reactions were initiated by addition of [^3H] CP-55,940 (New England Nuclear # NET 1051; specific activity=180 Ci/mmol available from New England Nuclear) to each well of the microtiter plate. Each 100 μl reaction mixture contained 0.48 nM [^3H] CP-55,940, 15 ug membrane protein in binding buffer containing 1% DMSO and 0.036% methyl cellulose. Following incubation for 2 hours at room temperature, the reaction mixtures were filtered through 0.5% polyethylenimine-coated GF/C filter plates (UniFilter-96, Packard) with a TomTec Mark 3U Harvester (Hamden, Conn.). The filter plate was washed 5 times with binding buffer, rotated 180°, then re-washed 5 times with binding buffer. Bound radioactivity was quantitated following addition of 30 μl of Packard Microscint 20 scintillant in a Packard TopCount NXT microplate scintillation counter. Non-linear regression analysis of the resulting data was performed using Prism 2.0b (from GraphPad, San Diego, Calif.).
The activities (potencies) for the compounds of the invention are determined by measuring their Ki values.

Where [1] appears, read: 0.48 nM [3H] CP-55,940, 15 ug membrane protein, 2 hours at room temperature, read-out: CB2 Ki.

T1 sequence (P34972 whole entry): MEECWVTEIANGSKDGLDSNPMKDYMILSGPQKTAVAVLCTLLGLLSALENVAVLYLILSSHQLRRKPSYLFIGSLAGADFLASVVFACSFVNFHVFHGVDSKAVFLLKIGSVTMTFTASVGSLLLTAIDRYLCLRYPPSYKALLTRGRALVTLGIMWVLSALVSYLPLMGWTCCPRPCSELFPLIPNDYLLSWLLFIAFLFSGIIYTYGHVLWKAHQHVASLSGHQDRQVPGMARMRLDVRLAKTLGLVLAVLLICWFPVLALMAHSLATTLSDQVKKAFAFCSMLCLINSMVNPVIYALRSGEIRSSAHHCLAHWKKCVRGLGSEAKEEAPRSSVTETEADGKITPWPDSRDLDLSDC

Regarding `CS(=O)(=O)NC1CCc2cc(S(=O)(=O)c3ccc(Cl)cc3S(=O)(=O)c3ccccn3)ccc21` (stereo not drawn) [Compound 8], under setting [1], the Ki was less than 0.02 µM. With `CS(=O)(=O)NC1CCc2cc(C(=O)c3ccc(OC(F)(F)F)cc3S(=O)(=O)c3ccccc3F)ccc21` (stereo not drawn) [Compound 2], the Ki is less than 0.02 µM.

Regarding `CS(=O)(=O)NC1CCc2cc(S(=O)(=O)c3cc4ccccc4n3S(=O)(=O)c3ccccn3)ccc21` (stereo not drawn) [Compound 10], under setting [1], the Ki is less than 0.02 µM.

On to `O=S(=O)(c1ccc2c(c1)CCC2NS(=O)(=O)C(F)(F)F)c1ccc(Cl)cc1S(=O)(=O)c1ccccc1F` (stereo not drawn) [Compound 6], for which, under setting [1], the Ki is less than 0.02 µM. The same measure, in the same setting: for `O=C(NC1CCc2cc(S(=O)(=O)c3ccc(C4CC4)cc3S(=O)(=O)c3ccccn3)ccc21)C(F)(F)F` (stereo not drawn) [Compound 19] the value was less than 0.02 µM; for `COc1ccc(S(=O)(=O)c2ccc3c(c2)CCC3NS(=O)(=O)C(F)(F)F)c(S(=O)(=O)c2ccccc2F)c1` (stereo not drawn) [Compound 5], less than 0.02 µM; for `O=S(=O)(c1ccc2c(c1)CCC2NS(=O)(=O)C(F)(F)F)c1ccc(C2CC2)cc1S(=O)(=O)c1ccccn1` (stereo not drawn) [Compound 12], less than 0.02 µM. As for `O=C(NC1CCc2cc(Cc3ccc(OC(F)(F)F)cc3S(=O)(=O)c3ccccc3F)ccc21)C(F)(F)F` (stereo not drawn) [Compound 23], the Ki under setting [1] is less than 0.02 µM.

Regarding `CS(=O)(=O)NC1CCc2cc(S(=O)(=O)c3ccc(C4CC4)cc3S(=O)(=O)c3ccccn3)ccc21` (stereo not drawn) [Compound 9], the Ki is less than 0.02 µM.

As usually defined, the Ki is the equilibrium dissociation constant of an inhibitor or competing ligand from its target.
